Reference: patent publication US20150105252A1, “SUBSTITUTED PYRAZOLES AS HERBICIDES” (E I DU PONT DE NEMOURS AND COMPANY, priority 2013, published 2015)

What was measured:
barnyardgrass [1] = experiment: Test C flooded paddy test; assay type: in vivo, Echinochloa crus-galli; settings: Flood
Method in brief: (§1)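 Flooded 3 cm over soil; compound into paddy water; depth kept constant. Greenhouse 13–15 d.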

corn = experiment: Test A postemergence; assay type: in vivo, Zea mays
Method in brief: (§2)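 Pre- and postemergence greenhouse test; loam+sand; cpd in non-phytotox. solvent/surfactant; post at 1–2 leaf, 2–10 cm; visual score ~10 d, 0 = none, 100 = complete control.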

velvetleaf = experiment: Test A postemergence; assay type: in vivo, Abutilon theophrasti
Method in brief: as §2

sedge, umbrella = experiment: Test C flooded paddy test; assay type: in vivo, Cyperus difformis; settings: Flood
Method in brief: as §1

rice = experiment: Test C flooded paddy test; assay type: in vivo, Oryza sativa; settings: Flood
Method in brief: as §1

barnyardgrass [2] = experiment: Test B flood; assay type: in vivo, Echinochloa crus-galli; settings: 250 g ai/ha, visual rating on 0 to 100 scale (0 no effect, 100 complete control), 13 to 15 days
Method in brief: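 Visual ratings on a 0–100 scale, where 0 means no effect and 100 means complete control, were assigned by comparison with controls 13 to 15 days after treatment. Compounds went into paddy water over 2-leaf plants flooded to 3 cm.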

ducksalad = experiment: Test C flooded paddy test; assay type: in vivo, Heteranthera limosa; settings: Flood
Method in brief: as §1

nutsedge, yellow = experiment: Test C postemergence; assay type: in vivo, Cyperus esculentus; settings: for Plant response rating (scale of 0 to 100 where 0 is no effect and 100 is complete control), Nutsedge, Yellow: visually evaluated after 13 to 15 days; for Nutsedge, Yellow plant response rating: scale 0 to 100
Text: Seeds of plant species selected from blackgrass (Alopecurus myosuroides), ryegrass, Italian (Italian ryegrass, Lolium multiflorum), wheat (winter wheat, Triticum aestivum), galium (catchweed bedstraw, Galium aparine), corn (Zea mays), crabgrass, large (large crabgrass, Digitaria sanguinalis), foxtail, giant (giant foxtail, Setaria faberii), johnsongrass (Sorghum halepense), lambsquarters (Chenopodium album), morningglory (Ipomoea coccinea), nutsedge, yellow (yellow nutsedge, Cyperus esculentus), pigweed (redroot pigweed, Amaranthus retroflexus), ragweed (common ragweed, Ambrosia elation), soybean (Glycine max), barnyardgrass (Echinochloa crus-galli), oilseed rape (Brassica napus), waterhemp (common waterhemp, Amaranthus rudis), oat, wild (wild oat, Avena fatua), kochia (Kochia scoparia), Surinam grass (Brachiaria decumbens), foxtail, green (green foxtail, Setaria viridis), goosegrass (Eleusine indica), bromegrass, downy (downy bromegrass, Bromus tectorum), nightshade (eastern black nightshade, Solanum ptycanthum), cocklebur (common cocklebur, Xanthium strumarium), cupgrass, woolly (woolly cupgrass, Eriochloa villosa), bermudagrass (Cynodon dactylon), sunflower, (common oilseed sunflower, Helianthus annuus), Russian thistle (Salsola kali), and velvetleaf (Abutilon theophrasti) were planted into a blend of loam soil and sand and treated preemergence with test chemicals formulated in a non-phytotoxic solvent mixture which included a surfactant.
At the same time, plants selected from these crop and weed species and also chickweed (common chickweed, Stellaria media), canarygrass (littleseed canarygrass, Phalaris minor), and deadnettle (henbit deadnettle, Lamium amplexicaule), were planted in pots containing Redi-Earth® planting medium (Scotts Company, 14111 Scottslawn Road, Marysville, Ohio 43041) comprising spaghnum peat moss, vermiculite, wetting agent and starter nutrients and treated with postemergence applications of test chemicals formulated in the same manner. Plants ranged in height from 2 to 18 cm (1- to 4-leaf stage) for postemergence treatments. Treated plants and controls were maintained in a greenhouse for 13 to 15 days, after which time all species were compared to controls and visually evaluated. Plant response ratings, summarized in Table C, are based on a scale of 0 to 100 where 0 is no effect and 100 is complete control. A dash (-) response means no test result.

[3] = 31 g ai/ha, scale 0 to 100 (0 no effect, 100 complete control)
[4] = 62 g ai/ha, scale 0 to 100 (0 no effect, 100 complete control)
[5] = 125 g ai/ha, scale 0 to 100 (0 no effect, 100 complete control)
[6] = Postemergence, 500 g ai/ha, 0 to 100 scale (0 no effect, 100 complete control)
[7] = postemergence, 125 g ai/ha, about 10 days, visual rating on 0 to 100 scale (0 no effect, 100 complete control)
[8] = postemergence, 250 g ai/ha, scale 0 to 100 (0 no effect, 100 complete control)
[9] = postemergence, 125 g ai/ha, scale 0 to 100, 0 no effect, 100 complete control
[10] = Postemergence, 125 g ai/ha, 0 to 100 scale, 0 no effect, 100 complete control
[11] = Postemergence, 500 g ai/ha, visual rating after approx. 10 days, 0 to 100 scale (0 no effect, 100 complete control)

Row | Compound | Corn plant response rating (corn; [6]) | Corn plant response rating (corn; [7]) | Velvetleaf plant response rating (velvetleaf; [6]) | Velvetleaf plant response rating (velvetleaf; [7]) | Plant response rating, Barnyardgrass (barnyardgrass [2]) | Plant response rating (scale of 0 to 100 where 0 is no effect and 100 is complete control), Nutsedge, Yellow (nutsedge, yellow; Postemergence, 31 g ai/ha) | Nutsedge, Yellow plant response rating (nutsedge, yellow; postemergence, 62 g ai/ha) | Plant response rating, Nutsedge, Yellow (nutsedge, yellow; [8]) | Plant response rating, Nutsedge, Yellow (nutsedge, yellow; [9]) | Velvetleaf plant response rating (velvetleaf; [10]) | Corn plant response rating (corn; [11]) | Velvetleaf plant response rating (velvetleaf; [11]) | further results
1 | CCNC(=O)c1cc(CCF)n(Cc2ccnc(C(F)(F)F)c2)n1 [Compound 178] | 90 | 10 | 60 | 40 | 20 | – | – | – | – | – | – | – | Plant response rating, Barnyardgrass (barnyardgrass [1]; [3]): 0; Plant response rating, Barnyardgrass (barnyardgrass [1]; [4]): 0; Plant response rating, Barnyardgrass (barnyardgrass [1]; [5]): 0; Plant response rating, Barnyardgrass (barnyardgrass [1]; 250 g ai/ha, scale 0 to 100): 20; Plant response rating, Sedge, Umbrella (sedge, umbrella; [3]): 0; Plant response rating, Sedge, Umbrella (sedge, umbrella; [4]): 0; Plant response rating, Sedge, Umbrella (sedge, umbrella; [5]): 40; Plant response rating, Sedge, Umbrella (sedge, umbrella; 250 g ai/ha, scale 0 to 100): 80; Plant response rating, Rice (rice; [3]): 0; Plant response rating, Rice (rice; [4]): 0; Plant response rating, Rice (rice; [5]): 0; Plant response rating, Rice (rice; 250 g ai/ha, scale 0 to 100): 20; Plant response rating, Ducksalad (ducksalad; [3]): 0; Plant response rating, Ducksalad (ducksalad; [4]): 30; Plant response rating, Ducksalad (ducksalad; [5]): 60; Plant response rating, Ducksalad (ducksalad; 250 g ai/ha, scale 0 to 100): 90
2 | CCNC(=O)c1cc(CC)n(Cc2cc(C(F)(F)F)nn2C)n1 [Compound 154] | 100 | 40 | 100 | 80 | 45 | 0 | 0 | 5 | 5 | – | – | – | –
3 | CCCc1cc(C(=O)NC(C)C)nn1Cc1ccnc(C(F)(F)F)c1 [Compound 186] | 100 | 100 | 100 | – | 75 | 5 | 5 | 15 | 5 | 20 | – | – | –
4 | CCCc1cc(C(=O)NC2CC2)nn1Cc1cc(C(F)(F)F)nn1C [Compound 202] | 90 | 80 | 90 | – | 30 | 0 | 5 | 20 | 10 | 70 | – | – | –
5 | CCc1cc(C(=O)NCC(F)(F)F)nn1Cc1nc(C(F)(F)F)nn1C [Compound 107] | – | 50 | – | 80 | 40 | 0 | 0 | 40 | 5 | – | 90 | 100 | –
6 | CCCc1cc(C(=O)NC(C)C)nn1Cc1cc(C(F)(F)F)nn1C [Compound 201] | 100 | 90 | 100 | – | 70 | 10 | 10 | 10 | 5 | 70 | – | – | –
7 | CCONC(=O)c1cc(CC)n(Cc2ccnc(OC(F)F)c2)n1 [Compound 131] | 100 | 80 | 100 | 90 | 50 | 5 | 5 | 20 | 10 | – | – | – | –
8 | CCCNC(=O)c1cc(OCC)n(Cc2ccnc(C(F)(F)F)c2)n1 [Compound 187] | 100 | 80 | 100 | – | 55 | 5 | 5 | 10 | 5 | 90 | – | – | –
9 | O=C(NC1CC1)c1cc(CCCl)n(Cc2ccnc(C(F)(F)F)c2)n1 [Compound 144] | 90 | 50 | 90 | 80 | 30 | 10 | 5 | 35 | 5 | – | – | – | –
10 | CCCNC(=O)c1cc(CC)n(Cc2ccnc(C(F)(F)F)c2)n1 [Compound 75] | – | 80 | – | 90 | 40 | – | 5 | – | 10 | – | 90 | 100 | Plant response rating (scale of 0 to 100), Nutsedge, Yellow (nutsedge, yellow; Postemergence, 16 g ai/ha): 0; Nutsedge, Yellow plant response rating (nutsedge, yellow; Postemergence, 31 g ai/ha): 5
11 | CCc1cc(C(=O)NC2CC2)nn1Cc1ccnc(C(F)(F)F)c1 [Compound 76] | – | 80 | – | 30 | 20 | 5 | 5 | 5 | 5 | – | 90 | 90 | –
12 | CCOc1cc(C(=O)NOC(C)C)nn1Cc1ccnc(C(F)(F)F)c1 [Compound 153] | 100 | 90 | 100 | 70 | 45 | 5 | 5 | 15 | 20 | – | – | – | –
13 | CCc1cc(C(=O)NCC(F)(F)F)nn1Cc1cc(C(F)(F)F)nn1C [Compound 108, 5-ethyl-1-[[1-methyl-3-(trifluoromethyl)-1H-pyrazole-5-yl]methyl]-N-(2,2,2-trifluoroethyl)-1H-pyrazole-3-carboxamide] | – | 80 | – | 60 | 40 | 0 | 0 | 25 | 0 | – | 100 | 100 | –
